Where “and” joins values, the source holds several entries; their conditions need not be identical. Identical values can stand only once.
Legend:
[1] = tested on: Bcrp1; design: method as in PMID 15749994; settings: Mrp2 deficient rats; ref [33]; cited from earlier work
[2] = tested on: Caco-2/TC7 cells; assay: Flavonol metabolism and transport experiments on Caco-2/TC7 transwell monolayers, effect of MK571; assay type: cell-based, human
Experimental: Cells were grown at 37 °C in a humidified incubator with 5% CO2 in Dulbecco Modified Eagle's Medium (DMEM) containing 1% non-essential amino acids, 1% L-glutamine, 100 IU/mL penicillin and 100 μg/mL streptomycin, 1 g/L glucose, and supplemented with 20% (v/v) heat inactivated fetal calf serum. Cells were passaged at 80% confluency, and seeded at 2–4 × 10^4 cells per cm^2 on 10 cm dishes (growing area 75 cm^2) or 12-well transwells (growing area of 1.1 cm^2). […] Toxicity of MK571 on Caco-2/TC7 cell monolayers was determined through comparison of pre- and post-loading TEER values of wells incubated with MK571.
Flavonol stocks (quercetin, kaempferol, galangin; 10 mM) were prepared in dimethylsulfoxide (DMSO) and stored at −20 °C. MK571 was dissolved in dimethyl sulfoxide (10 mM final concentration) and stored at −20 °C. Prior to the metabolism or transport experiments, cells were aspirated of media and washed three times with phosphate buffered saline (PBS). To foetal calf serum and phenol red-free DMEM was added ascorbic acid at a final concentration of 100 μM as well as MK571 at the desired concentration. For metabolism experiments, 10 mL of this media was added to the cells in 10 cm dishes. For transport experiments using transwells, 0.6 mL of this media was added to the apical compartment of the transwell and 1 mL was added to the basolateral compartment. Control wells received an equivalent dose of dimethyl sulfoxide as the treatment wells. Cells were incubated at 37 °C for 30 min, after which flavonols dissolved in dimethyl sulfoxide (kaempferol, galangin or quercetin) were added to the media of treatment wells at a final concentration of 40 or 100 μM, while control wells were treated with the dimethyl sulfoxide vehicle alone. Concentrations of quercetin were increased to 100 μM because instability of quercetin in media necessitated higher initial loading to maintain adequate cellular and media concentrations for uptake and metabolism of the flavonol. Control and treatment cells were incubated at 37 °C for the periods indicated in the results.
Following the required incubation period, media and cell fractions were harvested and analysed to identify and quantify flavonol metabolites using HPLC. Media was removed from the apical (0.5 mL) and basolateral (0.5 mL) compartments of transwells and added to 25 μL trifluoroacetic acid and 25 μL HPLC grade acetonitrile. Media from 10 cm dishes (1 mL) was removed and added to 50 μL trifluoroacetic acid and 25 μL HPLC grade acetonitrile. Cells were washed three times with cold (room temperature) phosphate buffered saline solution and scraped free of the dish surface. For transwells, 100 μL MilliQ water was added to the cells and the resulting cell suspension pipetted into 10 μL trifluoroacetic acid and 10 μL HPLC grade acetonitrile. For 10 cm dishes, the resulting cell suspension was pipetted into 25 μL trifluoroacetic acid and 25 μL HPLC grade acetonitrile. Samples were either analysed immediately or otherwise stored at −20 °C prior to HPLC analysis. Flavonols were stable during frozen storage and thawing (no significant losses up to 26 weeks).
Media samples were thawed where necessary and then mixed using a vortex mixer, centrifuged for 10 min at 14,000 × g using a micro centrifuge, and the supernatant removed and placed in an HPLC vial for analysis. Cell samples were vortex-mixed and then ultra-sonicated (sonic water bath) for 10 min, vortex mixed again and then centrifuged for 10 min at 14,000 × g using a micro-centrifuge, before removal of supernatant for HPLC analysis. Identification and quantification of individual flavonol metabolites was carried out using liquid chromatography–mass spectrometry and nuclear magnetic resonance analyses, as described previously. […]

[3] = tested on: UDP-β-D-glucuronosyl transferase (UDP-GT) activity in the Caco2 cell-free extracts; assay: Enzyme kinetics of kaempferol glucuronidation in Caco2 cell-free extracts (Km, Vmax, Ki); assay type: biochemical, human; settings: substrate kaempferol 5–150 μM; estimated from reciprocal plots; read-out: Ki for inhibition of the synthesis of K-4′-O-GlcA
Experimental: Cells were grown until 21 days post confluent and washed and aspirated as described previously. The cells were then scraped into tubes and these tubes kept on ice at all times throughout the preparation procedure. Homogenisation buffer comprised of sodium phosphate buffer (50 mM adjusted to pH 6.5; 20 mL), two mini protease inhibitor cocktail tablets containing EDTA and perfabloc, dithiothreitol (30.8 mg), alamethacin (20 μL of a 22 μg/mL) solution from T. viride; and MgCl2 (3.5 mg). Cell-free homogenates were prepared by mixing cells with homogenisation buffer (50:50, vol/vol) and vortexing with glass beads in an eppendorf tube three times for 1 min over a 10 min period. […] The supernatant was removed and analysed via HPLC.
Estimates of initial rates (v) of formation of flavonol conjugates by UDP-β-D-glucuronosyl transferase (UDP-GT) activity in the Caco2 cell-free extracts were calculated for each concentration of S (S = kaempferol; [S] range 5–150 μM). […] The type of inhibition was determined by plotting 1/v versus 1/S for each of the inhibitor (MK571) concentrations tested and observing the location of the intersection of the lines, which also gave estimated values for Km and Vmax. […]

[4] = tested on: Caco-2 cells; settings: cited from earlier work
[5] = tested on: Caco-2 cell culture model; design: method as in PMID 12893842; settings: 50 μM MK571; ref [39]; cited from earlier work
[6] = 50 μM MK571, vs vehicle-only control, transwell monolayers
[7] = galangin 40 μM + 50 μM MK571 apical, 60 min
[8] = in the presence of MK571 (Table 1: 50 μM)
[9] = kaempferol 40 μM + 50 μM MK571 apical, 60 min
[10] = kaempferol 40 μM + 100 μM MK571 apical, 60 min
[11] = quercetin 100 μM + 50 μM MK571 apical, 60 min
[12] = 50 μM MK571, Caco-2 cells, ref Walle et al. [28]

COc1ccc2c3c([nH]c2c1)[C@H](C=C(C)C)N1C(=O)[C@@H]2CCCN2C(=O)[C@@H]1C3 [FTC]
Total plasma quercetin and isorhamnetin concentrations [1]: twice that of controls

CN(C)C(=O)CCSC(SCCC(=O)O)c1cccc(/C=C/c2ccc3ccc(Cl)cc3n2)c1 (stereo not shown) [MK571]
Increase in galangin aglycone concentration of the cellular extract ([2]; 50 μM MK571): +180%
Increase in kaempferol aglycone concentration of the cellular extract ([2]; 50 μM MK571): +182%
Increase in quercetin aglycone concentration of the cellular extract ([2]; 50 μM MK571): +119%
Reduction in production of kaempferol sulphates ([2]; 50 μM MK571): 50.8%
Reduction in production of total kaempferol glucuronides ([2]; 50 μM MK571): 52.3%
Reduction in apical efflux of kaempferol conjugates ([2]; 50 μM MK571, vs no MK571, transwell monolayers): 44% and 43.2%
Reduction in apical efflux of galangin conjugates [2, 6]: 38% and 38.5%
Reduction in apical efflux of quercetin conjugates [2, 6]: 37.1%
Increase in kaempferol aglycone concentration of the cellular extract ([2]; 100 μM MK571): +229%
Reduction in production of kaempferol sulphates ([2]; 100 μM MK571): 88.4%
Reduction in production of total kaempferol glucuronides ([2]; 100 μM MK571): 67.2%
Apical galangin conjugates, change vs no MK571 [2, 7]: −38.5%
Apical galangin conjugates, rate [2, 7]: 1.789 nmol/h
Basolateral galangin conjugates, change vs no MK571 [2, 7]: −43.6%
Basolateral galangin conjugates, rate [2, 7]: 2.279 nmol/h
Cellular galangin conjugates, change vs no MK571 [2, 7]: −28.7%
Cellular galangin conjugates, rate [2, 7]: 0.004 nmol/h
Total galangin conjugates, change vs no MK571 [2, 7]: −41.4%
Total galangin conjugates, rate [2, 7]: 4.072 nmol/h
Decrease in galangin glucuronides [2, 8]: 42.8%
Decrease in galangin sulphates [2, 8]: 37.0%
Decrease in quercetin glucuronides [2, 8]: 56.5%
Decrease in quercetin sulphates [2, 8]: 39.6%
Apical kaempferol conjugates, change vs no MK571 [2, 9]: −43.2%
Apical kaempferol conjugates, rate [2, 9]: 1.196 nmol/h
Basolateral kaempferol conjugates, change vs no MK571 [2, 9]: −56.7%
Basolateral kaempferol conjugates, rate [2, 9]: 1.484 nmol/h
Cellular kaempferol conjugates, change vs no MK571 [2, 9]: −20.0%
Cellular kaempferol conjugates, rate [2, 9]: 0.004 nmol/h
Total kaempferol conjugates, change vs no MK571 [2, 9]: −51.5%
Total kaempferol conjugates, rate [2, 9]: 2.684 nmol/h
Apical kaempferol conjugates, change vs no MK571 [2, 10]: −81.9%
Apical kaempferol conjugates, rate [2, 10]: 0.382 nmol/h
Basolateral kaempferol conjugates, change vs no MK571 [2, 10]: −69.0%
Basolateral kaempferol conjugates, rate [2, 10]: 1.062 nmol/h
Cellular kaempferol conjugates, change vs no MK571 [2, 10]: −24.2%
Cellular kaempferol conjugates, rate [2, 10]: 0.003 nmol/h
Total kaempferol conjugates, change vs no MK571 [2, 10]: −73.9%
Total kaempferol conjugates, rate [2, 10]: 1.447 nmol/h
Apical quercetin conjugates, change vs no MK571 [2, 11]: −37.1%
Apical quercetin conjugates, rate [2, 11]: 0.706 nmol/h
Basolateral quercetin conjugates, change vs no MK571 [2, 11]: −56.3%
Basolateral quercetin conjugates, rate [2, 11]: 1.275 nmol/h
Cellular quercetin conjugates, change vs no MK571 [2, 11]: −2.72%
Cellular quercetin conjugates, rate [2, 11]: 0.004 nmol/h
Total quercetin conjugates, change vs no MK571 [2, 11]: −50.9%
Total quercetin conjugates, rate [2, 11]: 1.985 nmol/h
Ki [3]: 19.7 µM
Inhibition of chrysin glucuronide efflux [4, 12]: 71%
Inhibition of chrysin sulphate efflux [4, 12]: 25%
Efflux of methylated sulphate conjugates and sulphate conjugates of epigallocatechin ([4]; 50 μM, ref [35]): substantially inhibited
Inhibition of apical efflux of epicatechin sulphate conjugates ([4]; ref [36]): > 50%
Apigenin sulfation [5]: not inhibited
Inhibition of apigenin glucuronidation [5]: 30–40%

From PMC4428793, “MK571 inhibits phase-2 conjugation of flavonols by Caco-2/TC7 cells, but does not specifically inhibit their apical efflux^” (Biochemical Pharmacology, 2015)
